From patent US10144761B2, “Chiral specific boron-containing compounds and their use in treating cancer or amyloidosis” (HANLIN SCIENTIFIC, INC., priority 2015, dated 2018)
Read-outs that look alike come from different tables or passages of the source.

Key:
[1] = tested on: MM1.S cells; test: Cell viability assay (MTS assay); format: cell-based
Protocol: Cell Viability Assay 1. Cell Line
The multiple myeloma cell line MM1.S was obtained from the ATCC.
Eight thousand MM1.S cells per well were seeded in tissue culture-treated 96-well plate (Nunc) and incubated overnight.
Each well had the same DMSO concentration of 0.05%.
The effects of compounds on cell viability were assessed using CellTiter 96®A Queous One solution Reagent (Promega; G3580).
After being treated with various compounds for 72 hrs, cells in the 96-well plate were centrifuged 1000 rpm for 3 minutes, and 180 ul supernatant were removed from each well. Cells were incubated with 20 ul CellTiter 96®A Queous One solution Reagent and put into incubator with 5% CO2. at 37° C. for an additional 4 hrs. The absorbance was measured at 490 nm with Automatic Microplate reader (Infinite M1000 pro, Tecan). […] Four sets of experiments for each drug combinations were carried out. Cell viability (Percentage of Cell Survival) was calculated by the following formula: cell viability (%)=(average absorbance of treated group-average absorbance of blank)/(average absorbance of untreated group−average absorbance of blank)×100%. IC50 values were calculated using Prism software.

[2] = Stability study (three storage/solution conditions, by RP-HPLC); format: physicochemical; parameters: key to Stability, Room Temp Dry / Stability, 30° C./65% Humidity / Stability, 37° C. H2O/pH 7.4: “+” meaning stable; “−” meaning quickly degradable; conditions: for Stability, Room Temp Dry: room temperature (20° C.) under inert dry gas, determined by RP-HPLC; for Stability, 30° C./65% Humidity: sealed with double bags in stability chamber
Protocol: Compounds were tested for their stability, under three different conditions (see Table 2), by the following procedures: • 1. Room Temperature and Dry: compounds were left at the room temperature (20° C.) under inert dry gas; • 2. 30° C. and 65% Humidity: compounds sealed with double bags were put into a stability chamber. Temperature was set at 30° C. while the humidity was controlled at 65%. • 3. 37° C. pH=7.4 solution: compounds were dissolved in PBS solution and then the entire solution was submerged under a 37° C. water bath.

[3] = MM1.S cells, 72 hrs treatment, MTS assay
[4] = MM1.S cells, 72 hrs treatment, MTS assay, n=4, read-out: IC50
[5] = Homo sapiens, MM1.S, 72 h, MM1.S cells, 72 hrs treatment, MTS assay, n=4, read-out: IC50
[6] = dissolved in PBS solution, 37° C. water bath, RP-HPLC

| SMILES | Cytotoxic effects on MM1.S cells (in words) [1, 3] | IC50 [1, 4] [nM] | Stability, Room Temp Dry [2] | IC50 [1, 5] [nM] | Stability, 37° C. H2O/pH 7.4 [2, 6] | Stability, 30° C./65% Humidity ([2]; RP-HPLC) | IC50 ([1]; Homo sapiens, MM1.S, 72 h) [nM] | Stability, 37° C. H2O/pH 7.4 (result in words) [2, 6] |
| --- | --- | --- | --- | --- | --- | --- | --- | --- |
| CC(C)C[C@H](NC(=O)[C@H](Cc1ccccc1)NC(=O)c1cnccn1)B(O)O [Bortezomib, reference compound] | strong cytotoxic effects | 1.76 |  |  |  |  |  |  |
| CC(C)C[C@H](NC(=O)[C@H](Cc1ccccc1)NC(=O)c1cnccn1)B(O)O [HL01-0, [(1R)-3-methyl-1-[[(2S)-1-oxo-3-phenyl-2[(pyrazinylcarbonyl)amino]propyl]amino]butyl] boronic acid, reference compound] |  |  | − |  |  |  |  |  |
| CC(C)C[C@H](NC(=O)[C@H](Cc1ccccc1)NC(=O)c1cnccn1)[B-]12OC(=O)C[N+]1(C)CC(=O)O2 (stereo partly drawn) [HL01-11] | strong cytotoxic effects | 1.62 | + | ~2 | + | + |  |  |
| CC(C)C[C@H](NC(=O)CNC(=O)c1cc(Cl)ccc1Cl)[B-]12OC(=O)C[N+]1(C)CC(=O)O2 (stereo partly drawn) [HL01-15] | weaker than the other compounds |  | + |  | + | + | 6.85 |  |
| CC(C)C[C@H](NC(=O)CNC(=O)c1cc(Cl)ccc1Cl)B(O)O [HL01-17] |  |  | + | 9.45 |  | − |  | Decompose Instant |
